Measurements: patent US20230096051A1, “CGRP ANTIGONISTS USEFUL AS TRACER COMPOUNDS FOR POSITRON EMISSION TOMOGRAPHY” (Eli Lilly and Company, priority 2019, published 2023)
Like-named read-outs stand apart in the source and are kept apart here.

Assay: In vivo rat tracer distribution and brain uptake (LC-MS/MS)
Design: species or system Sprague-Dawley rats
Details: Sprague-Dawley, iv, 10 μg/kg i.v.
Method: Stock Formulation: Prepare a tracer stock solution at 0.5 mg/mL in 25% HP-BCD/PW (corrected for salt weight). Vortex thoroughly for 30 sec and place in bath sonication for 30 mins. Confirm the stock formulation is a clear solution or homogeneous suspension. Acid (10 μL acetic acid) or base (10 μL 5N NaOH), probe sonication, or a sonic bath may be used to aid in solubilization.
Final Dosing Formulation: If the stock formulation is a solution or homogeneous suspension, allow the stock solution to sit at room temperature for 5 min, and confirm and document the appearance of the stock formulation. Dilute the stock solution to the appropriate dose concentrations with 25% HP-BCD/PW. Vortex the final dosing solutions for 30 sec. Final tracer dosing solution is used for generation of the LC/MS/MS calibration standards in the appropriate matrix.
Study populations: Animal studies are performed under protocols approved by Eli Lilly and Company and PreClinOmics Institutional Animal Care and Use Committee. Twenty Sprague-Dawley rats weighing 200-300 g are obtained from Harlan Sprague Dawley Inc. (Indianapolis, Ind.) and are randomized into 4 groups of 5 animals each. Animals have access to food and water ad libitum before the study.
Live Phase Methods: Five animals per dose group are used. Each animal receives 10 μg/kg of the CGRP tracer compound administered intravenously in the lateral tail vein. Animals are euthanized by cervical dislocation followed by decapitation or live decapitation after 5, 10, 20 or 40 min survival intervals.
Trunk blood is collected in EDTA-coated Eppendorf tubes and stored on wet ice until study completion. The whole brain is rapidly removed, and lightly rinsed with sterile water. Frontal cortex, hippocampus, cerebellum, brainstem, and striatum brain tissues are dissected, weighed, stored in 1.5 mL Eppendorf tubes, and placed on wet ice until completion of live phase study.
Using a drug naïve test subject, blood and seven cortical brain tissues samples are collected for use in generating blank and standard curve samples.
Tissue—Tissue samples are kept on wet ice until the completion of the live phase. Tissue samples collected from test and naïve subjects are homogenized at PreClinOmics (Indianapolis, Ind., USA) and immediately taken to AIT Bioscience (Indianapolis, Ind., USA) on wet ice to be centrifuged along with an excel sheet indicating tissue weights, amount of ACN+0.1% HCOOH added to all tissue samples, and how the naive tissues were spiked for standards. Details on processing at PreClinOmics are as follows:
ACN containing 0.1% HCOOH is added to each tissue sample at a volume of four times the weight of the tissue sample (e.g., Add 600 μL ACN to a 150 mg brain tissue). The sample is homogenized via probe sonication. The standard curve is a 6-point curve with the range of 0.3-60 ng/g, linear regression, correlation coefficient, R^2, minimum of ≥0.95. Calibration standards are prepared from control tissue matrix homogenate (of the same organ) spiked with a calculated volume of standard (prepared from the tracer dosing solution used during the live phase). The homogenized tissue samples and spiked standards are transferred to AIT Bioscience on wet ice. Once at AIT Biosciences, all homogenized samples are centrifuged for 20 min at 14,000 rpm. The supernatant solution is diluted with an internal standard solution (1.0 ng/mL diphenhydramine in water) at a ratio of 1:4. Following dilution of the supernatant, if the total sample volume in the well plate is too small for injection, an additional dilution is performed using the mobile phase, ACN:water:0.1% HCOOH (20:80:0.1), at a ratio of 1:1. This solution is mixed thoroughly and analyzed via LC/MS/MS for tracer compound. Additional dilutions incurred due to small sample volume have an appropriate dilution factor applied during regression analysis.
Blood Samples—Whole blood samples are kept on wet ice until the completion of the live phase. […]

[1] = brain stem, read-out: Mean tracer concentration ± SEM, Brain Stem
[2] = cerebellum, read-out: Mean tracer concentration ± SEM, Cerebellum
[3] = frontal cortex, read-out: Mean tracer concentration ± SEM, Frontal Cortex
[4] = hippocampus, read-out: Mean tracer concentration ± SEM, Hippocampus
[5] = plasma, read-out: Mean tracer conc (plasma) ± SEM
[6] = striatum, read-out: Mean tracer concentration ± SEM, Striatum

| Structure (SMILES) | concentration at 5 min [1] | concentration at 10 min [1] | concentration at 20 min [1] | concentration at 40 min [1] | concentration at 5 min [2] | concentration at 10 min [2] | concentration at 20 min [2] | concentration at 40 min [2] | concentration at 5 min [3] | concentration at 10 min [3] | concentration at 20 min [3] | concentration at 40 min [3] | concentration at 5 min [4] | concentration at 10 min [4] | concentration at 20 min [4] | concentration at 40 min [4] | concentration at 5 min [5] | concentration at 10 min [5] | concentration at 20 min [5] | concentration at 40 min [5] | further results |
| --- | --- | --- | --- | --- | --- | --- | --- | --- | --- | --- | --- | --- | --- | --- | --- | --- | --- | --- | --- | --- | --- |
| Cc1cc(N2CCC2)cc(OCc2ccc([C@@H](C)[C@@]3(C)C(=O)NC[C@@H]3CF)cc2)n1 [Example 1, (3R,4R)-3-[(1R)-1-[4-[[4-(azetidin-1-yl)-6-methyl-2-pyridyl]oxymethyl]phenyl]ethyl]-4-(fluoromethyl)-3-methyl-pyrrolidin-2-one] | 3.69 ± 0.29 ng/g | 2.46 ± 0.09 ng/g | 1.21 ± 0.08 ng/g | 0.41 ± 0.03 ng/g | 3.52 ± 0.16 ng/g | 1.91 ± 0.05 ng/g | 0.9 ± 0.06 ng/g | 0.28 ± 0.02 ng/g | 4.19 ± 0.29 ng/g | 2.27 ± 0.05 ng/g | 0.98 ± 0.06 ng/g | 0.29 ± 0.02 ng/g | 3.52 ± 0.32 ng/g | 2.33 ± 0.09 ng/g | 1.06 ± 0.07 ng/g | 0.33 ± 0.02 ng/g | 6.3 ± 0.63 ng/mL | 3.37 ± 0.37 ng/mL | 1.72 ± 0.12 ng/mL | 0.48 ± 0.05 ng/mL | concentration at 5 min [6]: 3.94 ± 0.32 ng/g; concentration at 10 min [6]: 2.44 ± 0.13 ng/g; concentration at 20 min [6]: 1.12 ± 0.07 ng/g; concentration at 40 min [6]: 0.34 ± 0.02 ng/g |
| Cc1cc(N2CC(F)C2)cc(OCc2ccc([C@@H](C)[C@@]3(C)C(=O)NC[C@@H]3CF)cc2)n1 [Example 3, (3R,4R)-3-[(1R)-1-[4-[[4-(3-fluoroazetidin-1-yl)-6-methyl-2-pyridyl]oxymethyl]phenyl]ethyl]-4-(fluoromethyl)-3-methyl-pyrrolidin-2-one] | 3.13 ± 0.22 ng/g | 2.01 ± 0.17 ng/g | 1.18 ± 0.06 ng/g | 0.42 ± 0.02 ng/g | 3.06 ± 0.22 ng/g | 1.76 ± 0.13 ng/g | 0.88 ± 0.06 ng/g | 0.31 ± 0.02 ng/g | 3.55 ± 0.33 ng/g | 1.92 ± 0.16 ng/g | 0.92 ± 0.05 ng/g | 0.31 ± 0.02 ng/g | 2.9 ± 0.2 ng/g | 1.91 ± 0.14 ng/g | 1.01 ± 0.06 ng/g | 0.34 ± 0.02 ng/g | 6.2 ± 0.5 ng/mL | 3.65 ± 0.26 ng/mL | 1.94 ± 0.15 ng/mL | 0.73 ± 0.04 ng/mL | concentration at 5 min [6]: 3.57 ± 0.28 ng/g; concentration at 10 min [6]: 2.14 ± 0.16 ng/g; concentration at 20 min [6]: 1.09 ± 0.07 ng/g; concentration at 40 min [6]: 0.36 ± 0.04 ng/g |
| Cc1cc(N2CC(F)C2)cc(OCc2ccc([C@@H](C)[C@@]3(C)C(=O)NC[C@@H]3C)cc2)n1 [Example 2, (3R,4R)-3-[(1R)-1-[4-[[4-(3-fluoroazetidin-1-yl)-6-methyl-2-pyridyl]oxymethyl]phenyl]ethyl]-3,4-dimethyl-pyrrolidin-2-one] | 8.73 ± 0.51 ng/g | 5.27 ± 0.85 ng/g | 2.56 ± 0.33 ng/g | 1.08 ± 0.08 ng/g | 8.76 ± 0.48 ng/g | 4.78 ± 0.78 ng/g | 2.08 ± 0.22 ng/g | 0.88 ± 0.11 ng/g | 9.48 ± 0.57 ng/g | 5.07 ± 0.56 ng/g | 2.19 ± 0.24 ng/g | 0.8 ± 0.09 ng/g | 7.66 ± 0.42 ng/g | 4.64 ± 0.78 ng/g | 2.29 ± 0.36 ng/g | 0.74 ± 0.14 ng/g | 9.82 ± 0.82 ng/mL | 5.54 ± 0.8 ng/mL | 2.88 ± 0.37 ng/mL | 1.03 ± 0.12 ng/mL | concentration at 5 min [6]: 9.36 ± 0.54 ng/g; concentration at 10 min [6]: 5.23 ± 0.91 ng/g; concentration at 20 min [6]: 2.42 ± 0.28 ng/g; concentration at 40 min [6]: 1.06 ± 0.16 ng/g |
